This note sets out measurements from patent US7572809B2, “Isoquinoline aminopyrazole derivatives” (Hoffmann-La Roche Inc., priority 2005, dated 2009).

SMILES strings stand for the structures.

This assay has as its system HCT 116 cells. Nature of the assay: Viability assay in HCT 116 cells (CellTiter-Glo). It counts as cell-based. The following applies: 120 h; HCT 116 human colon carcinoma cells, 5 days incubation. The procedure:
Viability Assay in HCT 116 Cells
A viability assay was performed using the CellTiter-Glo® Luminescent Cell Viability Assay (see Promega Corporation's Technical Bulletin No. 288, pp. 1-11 [revised February, 2004] which is hereby incorporated by reference in its entirety). This assay is a homogeneous method of determining the number of viable cells in culture based on quantitation of the ATP present, an indicator of metabolically active cells. The assay is designed for use with multiwell formats, making it ideal for automated high-throughput screening (HTS), cell proliferation and cytotoxicity assays. The homogeneous assay procedure involves adding a single reagent (containing luciferase, luciferan substrate, and buffer) directly to cells cultured in serum-supplemented medium. Cell washing, removal of medium and multiple pipetting steps are not required. The system detects as few as 15 cells/well in a 384-well format in 10 minutes after adding reagent and mixing.
The homogeneous “add-mix-measure” format results in cell lysis and generation of a luminescent signal proportional to the amount of ATP present. The amount of ATP is directly proportional to the number of cells present in culture. The above-referenced assay generates a “glow-type” luminescent signal, produced by the luciferase reaction, which has a half-life generally greater than five hours, depending on cell type and medium used. The extended half-life eliminates the need to use reagent injectors and provides flexibility for continuous or batch mode processing of multiple plates. The unique homogeneous format avoids errors that may be introduced by other ATP measurement methods that require multiple steps.
HCT 116 cells (human colon carcinoma, ATCC-No. CCl-247) were cultivated in RPMI 1640 medium with GlutaMAX™ I (cell culture media that contains L-Alanyl-L-Glutamine [a stabilized form/source of L-Glutamine] from Invitrogen, Cat-No. 61870-010), 5% Fetal Calf Serum (FCS, Sigma Cat-No. F4135 (FBS)); 100 Units/ml penicillin/100 μg/ml streptomycin (=Pen/Strep from Invitrogen Cat. No. 15140). For the assay the cells were seeded in 384 well plates, 1000 cells per well, in the same medium. The next day the test compounds were added in various concentrations ranging from 30 μM to 0.0015 μM (10 concentrations, 1:3 diluted). After 5 days the viability assay was performed according to the instructions of the manufacturer. In brief: the cell-plate was equilibrated to room temperature for approximately 30 minutes and then the CellTiter-Glo™ reagent (which contains luciferase, luciferan substrate, and buffer) was added. The contents were carefully mixed for 15 minutes to induce cell lysis. After 45 minutes the luminescent signal was measured in Victor 2, (scanning multiwell spectrophotometer, Wallac).
1st. Day: • Medium: RPMI 1640 with GlutaMAX™ I (Invitrogen, Cat-No. 61870), 5% FCS (Sigma Cat.-No. F4135), Pen/Strep (Invitrogen, Cat No. 15140). • HCT116 (ATCC-No. CCl-247): 1000 cells in 60 μl per well of 384 well plate (Greiner 781098, μClear-plate white) • After seeding incubate plates 24 h at 37° C., 5% CO2 2nd. Day: Induction (Treatment with Compounds, 10 Concentrations):
In order to achieve a final concentration of 30 μM as highest concentration 3.5 μl of 10 mM compound stock solution were added directly to 163 μl media. Then step e) of the dilution procedure described below, was followed.
In order to achieve the second highest to the lowest concentrations, a serial dilution with dilution steps of 1:3 was followed according to the procedure (a-e) as described here below: a) for the second highest concentration add 10 μl of 10 mM stock solution of compound to 20 μl dimethylsulfoxide (DMSO) b) dilute 8×1:3 (always 10 μl to 20 μl DMSO) in this DMSO dilution row (results in 9 wells with concentrations from 3333.3 μM to 0.51 μM) c) dilute each concentration 1:47.6 (3.5 μl compound dilution to 163 μl media) […]
A general note: Cellular ATP, detected with luciferase, serves as a proxy for viable cell number.
Compound `Cc1cc(Nc2cc3ccccc3c(Oc3ccccc3)n2)n[nH]1` [Example 11, (5-Methyl-1H-pyrazol-3-yl)-(1-phenoxy-isoquinolin-3-yl)-amine] gave an IC50 of 1830 nM. Then `Cc1cc(Nc2cc3ccccc3c(OCc3ccccc3)n2)n[nH]1` [Example 12, (1-Benzyloxy-isoquinolin-3-yl)-(5-methyl-1H-pyrazol-3-yl)-amine], with 3320 nM; and `Cc1cc(Nc2cc3ccccc3c(Oc3ccc(Cl)cc3)n2)n[nH]1` [Example 16, [1-(4-Chloro-phenoxy)-isoquinolin-3-yl]-(5-methyl-1H-pyrazol-3-yl)-amine], with 1930 nM. The compound `Cc1cc(Nc2cc3ccccc3c(Oc3ccccc3C)n2)n[nH]1` [Example 21, (5-Methyl-1H-pyrazol-3-yl)-(1-o-tolyloxy-isoquinolin-3-yl)-amine] came in with an IC50 of 5670 nM. Then `Cc1cc(Nc2cc3ccccc3c(Oc3cccc(C#N)c3)n2)n[nH]1` [Example 28, 3-[3-(5-Methyl-1H-pyrazol-3-ylamino)-isoquinolin-1-yloxy]-benzonitrile], with 999 nM. Then `Cc1cc(Nc2cc3ccccc3c(OC3CCCCC3)n2)n[nH]1` [Example 33, (1-Cyclohexyloxy-isoquinolin-3-yl)-(5-methyl-1H-pyrazol-3-yl)-amine], with 3240 nM; and `COc1ccc2c(Oc3ccc(C#N)cc3)nc(Nc3cc(C)[nH]n3)cc2c1` [Example 39, 4-[3-(5-Methyl-1H-pyrazol-3-ylamino)-6-methoxy-isoquinolin-1-yloxy]-benzonitrile], with 1380 nM. In turn, `COc1ccc2c(OCCN3CCOCC3)nc(Nc3cc(C)[nH]n3)cc2c1` [Example 53, (5-Methyl-1H-pyrazol-3-yl)-[1-(2-morpholin-4-yl-ethoxy)-6-methoxy-isoquinolin-3-yl]-amine] displayed an IC50 of 3500 nM. Then `COc1ccc2c(OC(C)C)nc(Nc3cc(C)[nH]n3)cc2c1` [Example 56, (1-Isopropoxy-6-methoxy-isoquinolin-3-yl)-(5-methyl-1H-pyrazol-3-yl)-amine], with 636 nM; and `COc1cccc2c(Oc3ccc(C)cc3)nc(Nc3cc(C)[nH]n3)cc12` [Example 67, (5-Methyl-1H-pyrazol-3-yl)-(1-p-tolyloxy-5-methoxy-isoquinolin-3-yl)-amine], with 1370 nM; and `COc1ccc2cc(Nc3cc(C)[nH]n3)nc(Oc3ccc(Cl)cc3)c2c1` [Example 77, [1-(4-Chloro-phenoxy)-7-methoxy-isoquinolin-3-yl]-(5-methyl-1H-pyrazol-3-yl)-amine], with 1940 nM. Then `COc1ccc2c(Oc3ccc(F)cc3)nc(Nc3cc(C)[nH]n3)cc2c1OC` [Example 94, [1-(4-Fluoro-phenoxy)-5,6-dimethoxy-isoquinolin-3-yl]-(5-methyl-1H-pyrazol-3-yl)-amine], with 2540 nM; and `COc1cc2cc(Nc3cc(C)[nH]n3)nc(OC3CCC3)c2cc1OC` [Example 125, (1-Cyclobutoxy-6,7-dimethoxy-isoquinolin-3-yl)-(5-methyl-1H-pyrazol-3-yl)-amine], with 510 nM; and `Cc1cc(Nc2cc3ccccc3c(-c3ccccc3)n2)n[nH]1` [Example 131, (5-Methyl-1H-pyrazol-3-yl)-(1-phenyl-isoquinolin-3-yl)-amine], with 3930 nM. In turn, `Cc1cc(Nc2cc3ccccc3c(-c3ccc(Cl)cc3)n2)n[nH]1` [Example 140, [1-(4-Chloro-phenyl)-isoquinolin-3-yl]-(5-methyl-1H-pyrazol-3-yl)-amine] gave an IC50 of 2610 nM. Under `Cc1cc(Nc2cc3ccccc3c(-c3csc4ccccc34)n2)n[nH]1` [Example 159, (1-Benzo[b]thiophen-3-yl-isoquinolin-3-yl)-(5-methyl-1H-pyrazol-3-yl)-amine] stands 1900 nM; under `Cc1cc(Nc2cc3ccccc3c(-c3cnn(C)c3)n2)n[nH]1` [Example 164, (5-Methyl-1H-pyrazol-3-yl)-[1-(1-methyl-1H-pyrazol-4-yl)-isoquinolin-3-yl]-amine], 5310 nM; under `COc1ccc2c(-c3cn[nH]c3)nc(Nc3cc(C)[nH]n3)cc2c1` [Example 194, (5-Methyl-1H-pyrazol-3-yl)-[1-(1H-pyrazol-4-yl)-6-methoxy-isoquinolin-3-yl]-amine], 3440 nM. `COc1cccc2c(-c3ccccc3)nc(Nc3cc(C)[nH]n3)cc12` [Example 202, (5-Methoxy-1-phenyl-isoquinolin-3-yl)-(5-methyl-1H-pyrazol-3-yl)-amine] registered an IC50 of 1410 nM. Under `FC(F)(F)c1ccc(-c2nc(Nc3cc[nH]n3)cc3ccccc23)cc1` [Example 220, (1H-Pyrazol-3-yl)-[1-(4-trifluoromethyl-phenyl)-isoquinolin-3-yl]-amine] stands 3170 nM; under `COc1ccc2c(-c3ccc(C(C)=O)cc3)nc(Nc3cc[nH]n3)cc2c1` [Example 252, 1-{4-[6-Methoxy-3-(1H-pyrazol-3-ylamino)-isoquinolin-1-yl]-phenyl}-ethanone], 3870 nM; under `COc1ccc2c(-c3ccc(C)cc3)nc(Nc3cc[nH]n3)cc2c1` [Example 263, (6-Methoxy-1-p-tolyl-isoquinolin-3-yl)-(1H-pyrazol-3-yl)-amine], 1540 nM. `COc1ccc2c(Nc3ccncc3)nc(Nc3cc(C)[nH]n3)cc2c1` [Example 288, 6-Methoxy-N^3-(5-methyl-1H-pyrazol-3-yl)-N^1-pyridin-4-yl-isoquinoline-1,3-diamine]: inhibition was half-maximal at 1290 nM (IC50). Then `Cc1cc(Nc2cc3ccccc3c(Nc3cccc(Cl)c3)n2)n[nH]1` [Example 294, N^1-(3-Chloro-phenyl)-N^3-(5-methyl-1H-pyrazol-3-yl)-isoquinoline-1,3-diamine], with 1780 nM; and `COc1cccc(-c2nc(Nc3cc(C)[nH]n3)cc3cc(OCCN4CCOCC4)ccc23)c1` [Example 300, [1-(3-Methoxy-phenyl)-6-(2-morpholin-4-yl-ethoxy)-isoquinolin-3-yl]-(5-methyl-1H-pyrazol-3-yl)-amine], with 1530 nM. Under `COCCCNC(=O)c1ccc2c(-c3ccc(F)cc3F)nc(Nc3cc(C)[nH]n3)cc2c1` [Example 302, 1-(2,4-Difluoro-phenyl)-3-(5-methyl-1H-pyrazol-3-ylamino)-isoquinoline-6-carboxylic acid (3-methoxy-propyl)-amide] stands 3070 nM. Under `COc1cccc(Sc2nc(Nc3cc(C)[nH]n3)cc3ccccc23)c1` [Example 306, [1-(3-Methoxy-phenylsulfanyl)-isoquinolin-3-yl]-(5-methyl-1H-pyrazol-3-yl)-amine] stands 1580 nM; under `Cc1cc(Nc2cc3ccccc3c(Sc3ccc(F)cc3)n2)n[nH]1` [Example 312, [1-(4-Fluoro-phenylsulfanyl)-isoquinolin-3-yl]-(5-methyl-1H-pyrazol-3-yl)-amine], 3760 nM; under `COc1ccc2c(C(=O)NCC3CC3)nc(Nc3cc(C)[nH]n3)cc2c1` [Example 318, 6-Methoxy-3-(5-methyl-1H-pyrazol-3-ylamino)-isoquinoline-1-carboxylic acid cyclopropylmethyl-amide], 3110 nM.

As a reminder, the IC50 is the point on the concentration scale where inhibition reaches its midpoint. Higher therefore signals lower potency.
